According to PubChem BioAssay AID2060618 (Molecular Pharmacology Branch, DTP, NCI, 2025):
Each block holds one molecule with its values, some of them ahead of it.

System: 454973-116-R2-J3-PDC spheroids, percent test/control viability
Experiment: Anticancer human tumor 454973-116-R2-J3-PDC patient-derived pancreatic carcinoma cell line growth inhibition [CLK]
Settings: spheroids with HUVEC and MSC; for IC50: curve of first compound; for viability, T/C: stronger effect = lower value
How it was run: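 Patient-derived tumor cells grown as complex spheroids with HUVEC endothelial cells and mesenchymal stem cells, treated with drug combinations. Concentrations descend in half-log steps from near clinical Cmax, or from 10 microM if Cmax unknown.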
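Also: spheroids exposed to compounds for 7 days before readout.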

IC50 (second compound 0.0316 µM): > 300 nM
IC50 (second compound 0.1 µM): > 300 nM
IC50 (second compound 0.316 µM): < 0.949 nM
IC50 (second compound 1 µM): < 0.949 nM
IC50 (second compound 3.16 µM): < 0.949 nM
IC50 (second compound 10 µM): < 0.949 nM
Structure (SMILES): C=CC(=O)Nc1cc(Nc2nccc(-c3cn(C)c4ccccc34)n2)c(OC)cc1N(C)CCN(C)C + CNC(=O)c1ccc(Nc2nc(OC3CCCC3)c3c(-c4ccc5nc(C)oc5c4)c[nH]c3n2)c(OC)c1
viability, T/C (second compound 0.0316 µM, first compound 0.000949 µM): 106%
viability, T/C (second compound 0.0316 µM, first compound 0.003 µM): 108%
viability, T/C (second compound 0.0316 µM, first compound 0.00949 µM): 92.5%
viability, T/C (second compound 0.0316 µM, first compound 0.03 µM): 107%
viability, T/C (second compound 0.0316 µM, first compound 0.0949 µM): 104%
viability, T/C (second compound 0.0316 µM, first compound 0.3 µM): 101%
viability, T/C (second compound 0.1 µM, first compound 0.000949 µM): 95.9%
viability, T/C (second compound 0.1 µM, first compound 0.003 µM): 106%
viability, T/C (second compound 0.1 µM, first compound 0.00949 µM): 90.7%
viability, T/C (second compound 0.1 µM, first compound 0.03 µM): 80.9%
viability, T/C (second compound 0.1 µM, first compound 0.0949 µM): 69.7%
viability, T/C (second compound 0.1 µM, first compound 0.3 µM): 61%
viability, T/C (second compound 0.316 µM, first compound 0.000949 µM): 43.8%
viability, T/C (second compound 0.316 µM, first compound 0.003 µM): 36.4%
viability, T/C (second compound 0.316 µM, first compound 0.00949 µM): 30.5%
viability, T/C (second compound 0.316 µM, first compound 0.03 µM): 34.8%
viability, T/C (second compound 0.316 µM, first compound 0.0949 µM): 36.4%
viability, T/C (second compound 0.316 µM, first compound 0.3 µM): 32.7%
viability, T/C (second compound 1 µM, first compound 0.000949 µM): 27.9%
viability, T/C (second compound 1 µM, first compound 0.003 µM): 30.9%
viability, T/C (second compound 1 µM, first compound 0.00949 µM): 30.5%
viability, T/C (second compound 1 µM, first compound 0.03 µM): 29.8%
viability, T/C (second compound 1 µM, first compound 0.0949 µM): 34.5%
viability, T/C (second compound 1 µM, first compound 0.3 µM): 33.9%
viability, T/C (second compound 3.16 µM, first compound 0.000949 µM): 29.9%
viability, T/C (second compound 3.16 µM, first compound 0.003 µM): 28.3%
viability, T/C (second compound 3.16 µM, first compound 0.00949 µM): 26.7%
viability, T/C (second compound 3.16 µM, first compound 0.03 µM): 27.8%
viability, T/C (second compound 3.16 µM, first compound 0.0949 µM): 31.1%
viability, T/C (second compound 3.16 µM, first compound 0.3 µM): 22.1%
viability, T/C (second compound 10 µM, first compound 0.000949 µM): 33.9%
viability, T/C (second compound 10 µM, first compound 0.003 µM): 24%
viability, T/C (second compound 10 µM, first compound 0.00949 µM): 21.9%
viability, T/C (second compound 10 µM, first compound 0.03 µM): 25.4%
viability, T/C (second compound 10 µM, first compound 0.0949 µM): 27.9%
viability, T/C (second compound 10 µM, first compound 0.3 µM): 20.4%

IC50 (second compound 0.0316 µM): > 1000 nM
IC50 (second compound 0.1 µM): > 1000 nM
IC50 (second compound 0.316 µM): < 3.16 nM
IC50 (second compound 1 µM): < 3.16 nM
IC50 (second compound 3.16 µM): < 3.16 nM
IC50 (second compound 10 µM): < 3.16 nM
Structure (SMILES): CCN1CCN(Cc2ccc(Nc3ncc(F)c(-c4cc(F)c5nc(C)n(C(C)C)c5c4)n3)nc2)CC1 + CNC(=O)c1ccc(Nc2nc(OC3CCCC3)c3c(-c4ccc5nc(C)oc5c4)c[nH]c3n2)c(OC)c1
viability, T/C (second compound 0.0316 µM, first compound 0.00316 µM): 103%
viability, T/C (second compound 0.0316 µM, first compound 0.01 µM): 90.4%
viability, T/C (second compound 0.0316 µM, first compound 0.0316 µM): 82.8%
viability, T/C (second compound 0.0316 µM, first compound 0.1 µM): 69.1%
viability, T/C (second compound 0.0316 µM, first compound 0.316 µM): 67.2%
viability, T/C (second compound 0.0316 µM, first compound 1 µM): 60.4%
viability, T/C (second compound 0.1 µM, first compound 0.00316 µM): 96.8%
viability, T/C (second compound 0.1 µM, first compound 0.01 µM): 84.7%
viability, T/C (second compound 0.1 µM, first compound 0.0316 µM): 79.2%
viability, T/C (second compound 0.1 µM, first compound 0.1 µM): 67.2%
viability, T/C (second compound 0.1 µM, first compound 0.316 µM): 63.4%
viability, T/C (second compound 0.1 µM, first compound 1 µM): 56.2%
viability, T/C (second compound 0.316 µM, first compound 0.00316 µM): 44.8%
viability, T/C (second compound 0.316 µM, first compound 0.01 µM): 44.4%
viability, T/C (second compound 0.316 µM, first compound 0.0316 µM): 54.5%
viability, T/C (second compound 0.316 µM, first compound 0.1 µM): 55.6%
viability, T/C (second compound 0.316 µM, first compound 0.316 µM): 52.5%
viability, T/C (second compound 0.316 µM, first compound 1 µM): 63.6%
viability, T/C (second compound 1 µM, first compound 0.00316 µM): 34.4%
viability, T/C (second compound 1 µM, first compound 0.01 µM): 34.1%
viability, T/C (second compound 1 µM, first compound 0.0316 µM): 39%
viability, T/C (second compound 1 µM, first compound 0.1 µM): 43%
viability, T/C (second compound 1 µM, first compound 0.316 µM): 43.3%
viability, T/C (second compound 1 µM, first compound 1 µM): 47%
viability, T/C (second compound 3.16 µM, first compound 0.00316 µM): 30.6%
viability, T/C (second compound 3.16 µM, first compound 0.01 µM): 35.5%
viability, T/C (second compound 3.16 µM, first compound 0.0316 µM): 37.2%
viability, T/C (second compound 3.16 µM, first compound 0.1 µM): 39.1%
viability, T/C (second compound 3.16 µM, first compound 0.316 µM): 38.5%
viability, T/C (second compound 3.16 µM, first compound 1 µM): 46.2%
viability, T/C (second compound 10 µM, first compound 0.00316 µM): 27.5%
viability, T/C (second compound 10 µM, first compound 0.01 µM): 27%
viability, T/C (second compound 10 µM, first compound 0.0316 µM): 33.5%
viability, T/C (second compound 10 µM, first compound 0.1 µM): 37.8%
viability, T/C (second compound 10 µM, first compound 0.316 µM): 41.8%
viability, T/C (second compound 10 µM, first compound 1 µM): 47.3%
